Data: article PMC6514812, “[^18F]Fluoroethyltriazolyl Monocyclam Derivatives as Imaging Probes for the Chemokine Receptor CXCR4” (Molecules, 2019)

Key:
[1] = biological target: T1, CXCR4 (Homo sapiens, UniProt P61073); assay: Saturation binding assay in PC3-CXCR4 cells; details: for Kd: saturation binding, PC3-CXCR4 cells; for Hill Slope, Saturation Binding Experiment: value ± SD
T1 construct: expressed in transfected cells; host or cells: PC3 (human prostate cancer) cells stably transduced with CXCR4
Method: To determine the dissociation constants, saturation binding assays were performed in the PC3-CXCR4 cells. The cells were plated as described above, and approximately 5 nM of the radioligand was added to each well. Then the corresponding non-radioactive ligand was added to give a final concentration in the range 0.001–10,000 nM. A total of eight concentrations were tested, and each concentration was tested in triplicate. The samples were washed and counted as described above. Non-specific binding was subtracted, and Kd values were determined by performing a nonlinear one site binding curve fit with equation y = (Bmax · x)/(Kd + x). Values are expressed as Kd ± standard deviation (Supplemental Data, Figure S8).

[2] = biological target: T1, CXCR4; assay: Competition binding assay vs [^68Ga]Pentixafor in PC3-CXCR4 cells; details: for IC50: vs 100 nM [^68Ga]Pentixafor, PC3-CXCR4 cells, 60 min 37 °C; for Hill Slope, Competitive Binding Experiment: vs [^68Ga]Pentixafor, value ± SD
Method: (§1) PC3-CXCR4 cells were plated in 12-well plates at a density of 500,000 cells per well and incubated for 48 h at 37 °C/5% CO2. Prior to the binding assay the cells were incubated in fresh media and 370–555 kBq of [^68Ga]Pentixafor or [^18F]RPS-544 was added to each well. The corresponding concentration of [^68Ga]Pentixafor in each well was 100 nM, and the concentration of [^18F]RPS-544 was approximately 5 pM. Then non-radioactive ligands were added to give a final ligand concentration in the range 0.001–10,000 nM. A total of eight concentrations were studied, and each concentration was tested in triplicate. The cells were incubated for 60 min at 37 °C/5% CO2. The media was removed under suction, the cells were washed with cold PBS 1X and detached and transferred to tubes for counting in 1 M NaOH. The cells were counted in a Wizard^2 Gamma Counter (PerkinElmer, Waltham, MA, USA). Non-specific binding was subtracted, and the IC50 values were determined by assuming a simple competitive binding interaction and fitting the data to a sigmoidal Hill plot in Origin 9.0 (OriginLab, Northampton, MA, USA). Potencies are expressed as IC50 ± standard deviation (Supplemental Data, Figure S7).

[3] = test system: PC3-CXCR4 cells; assay: Cell-associated activity in PC3-CXCR4 cells; assay type: cell-based, human; details: 1 h
Method: Maximum cell-associated activity was calculated by subtracting the cell uptake of the radioactive ligand at the highest non-radioactive ligand concentration of 10 µM (which we considered to be non-specific uptake/binding) from the cell uptake at the lowest non-radioactive ligand concentration of 10^−5 µM.

[4] = biological target: T1, CXCR4; assay: Competition binding assay vs [^18F]RPS-544 in PC3-CXCR4 cells; details: approx. 5 pM [^18F]RPS-544; p = 0.85
Method: as §1

[5] = Biodistribution in mice bearing bilateral PC3-WT/PC3-CXCR4 xenograft tumors; assay type: in vivo, BALB/c mice
Method: (§2) All animal studies were approved by the Institutional Animal Care and Use Committee of Weill Cornell Medicine (Protocol Number: 2015-0066) and were undertaken in accordance with the guidelines set forth by the USPHS Policy on Humane Care and Use of Laboratory Animals. Animals were housed under standard conditions in approved facilities with 12 h light/dark cycles. Food and water was provided ad libitum throughout the course of the studies. Hairless 6-to-8-week old male BALB/c inbred athymic nude mice (Jackson Laboratory, Bar Harbor, ME, USA) were inoculated bilaterally with 0.2 mL of a 1:1 mixture of 10^7 PC3-CXCR4 cells in PBS and Matrigel (Corning, Tewksbury, MA, USA) subcutaneously in the left shoulder and 0.2 mL of a 1:1 mixture of 10^7 PC3-WT cells in PBS and Matrigel subcutaneously in the right shoulder. Imaging and biodistribution studies were performed three weeks post-implantation, when tumors were approximately 100–300 mm^3.
(§3) For the biodistribution studies, tumor-bearing animals (n = 5/compound/time point) were injected intravenously with 50–100 μL of a 9% v/v EtOH/saline solution containing approximately 1.1 MBq of the radioligand. […] The mice were euthanized at 1 or 2 h p.i. and tissues including blood, heart, lungs, liver, small intestine, large intestine, stomach (with contents), spleen, pancreas, kidneys, muscle, bone, PC3-WT tumors, PC3-CXCR4 tumors, and tail were collected. All organs were weighed and placed in test tubes for counting in a Wizard^2 Gamma Counter (PerkinElmer, Waltham, MA, USA). For comparison, 1% injected activity standards were prepared and counted along with the tissue samples. The tails were counted to correct for any dose extravasation. Activity in each tissue was corrected for decay and for injected activity and expressed as percent injected dose per gram of tissue (%ID/g) ± standard error.

[6] = test system: PC3-CXCR4 xenograft tumors; assay: as above; assay type: in vivo, BALB/c mice
Method: as §2, §3

[7] = 1 h p.i., blocked by co-injection of 5 mg/kg AMD-3100

T1 sequence (P61073 whole entry): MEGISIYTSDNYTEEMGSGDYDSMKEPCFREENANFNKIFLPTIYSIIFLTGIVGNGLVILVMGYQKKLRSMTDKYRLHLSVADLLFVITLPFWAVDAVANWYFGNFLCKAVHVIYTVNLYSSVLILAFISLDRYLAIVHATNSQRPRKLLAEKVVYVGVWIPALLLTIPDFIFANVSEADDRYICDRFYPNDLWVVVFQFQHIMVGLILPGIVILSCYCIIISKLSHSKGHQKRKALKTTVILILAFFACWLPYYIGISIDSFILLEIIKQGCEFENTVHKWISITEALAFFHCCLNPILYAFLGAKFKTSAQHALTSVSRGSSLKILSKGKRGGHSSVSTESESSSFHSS

Structure (SMILES): FCCn1cc(-c2cc(CN3CCCNCCNCCCNCC3)ccc2CN2CCCNCCNCCCNCC2)nn1 [RPS-545]
- Kd [1]: 515 ± 68 nM
- Hill Slope, Saturation Binding Experiment [1]: 2.01 ± 0.22
- IC50 [2]: 398 ± 41 nM
- Hill Slope, Competitive Binding Experiment [2]: 1.75 ± 0.33
- Cell-Associated Activity [3]: 0.8 ± 0.1 %IA
- IC50 vs [^18F]RPS-544 compared with IC50 vs [^68Ga]Pentixafor [4]: not significantly different

Structure (SMILES): FCCn1cc(CNCc2ccc(CN3CCCNCCNCCCNCC3)cc2)nn1 [RPS-547]
- Blood tissue activity ([5]; 1 h p.i.): 0.28±0.06 %ID/g
- Blood tissue activity [5, 7]: 0.41±0.40 %ID/g
- Blood tissue activity ([5]; 2 h p.i.): 0.08±0.01 %ID/g
- Bone tissue activity ([6]; 1 h p.i.): 0.52±0.04 %ID/g
- Heart tissue activity ([6]; 1 h p.i.): 0.18±0.04 %ID/g
- Kidneys tissue activity ([6]; 1 h p.i.): 10.73 ± 1.10 %ID/g
- Large Intestine tissue activity ([6]; 1 h p.i.): 0.20±0.02 %ID/g
- Liver tissue activity ([6]; 1 h p.i.): 6.59±1.00 %ID/g
- Lungs tissue activity ([6]; 1 h p.i.): 0.48±0.05 %ID/g
- Muscle tissue activity ([6]; 1 h p.i.): 0.14±0.01 %ID/g
- PC3-CXCR4 Tumor Uptake ([6]; 1 h p.i.): 3.09 ± 0.52 %ID/g
- PC3-CXCR4 Tumor-to-Tissue Ratio Blood ([6]; 1 h p.i.): 10.1 ± 0.3
- PC3-CXCR4 Tumor-to-Tissue Ratio Bone ([6]; 1 h p.i.): 5.9 ± 0.8
- PC3-CXCR4 Tumor-to-Tissue Ratio Kidneys ([6]; 1 h p.i.): 0.3 ± 0.2
- PC3-CXCR4 Tumor-to-Tissue Ratio Liver ([6]; 1 h p.i.): 0.5 ± 0.2
- PC3-CXCR4 Tumor-to-Tissue Ratio Lungs ([6]; 1 h p.i.): 6.2 ± 0.8
- PC3-CXCR4 Tumor-to-Tissue Ratio Muscle ([6]; 1 h p.i.): 20.3 ± 0.3
- PC3-CXCR4 Tumor-to-Tissue Ratio PC3-WT ([6]; 1 h p.i.): 1.9 ± 0.3
- PC3-WT tumor activity ([6]; 1 h p.i.): 1.54±0.18 %ID/g
- Pancreas tissue activity ([6]; 1 h p.i.): 0.20±0.01 %ID/g
- Small Intestine tissue activity ([6]; 1 h p.i.): 0.95±0.10 %ID/g
- Spleen tissue activity ([6]; 1 h p.i.): 0.53±0.02 %ID/g
- Stomach tissue activity ([6]; 1 h p.i.): 0.17±0.03 %ID/g
- Bone tissue activity [6, 7]: 0.22±0.12 %ID/g
- Heart tissue activity [6, 7]: 0.14±0.19 %ID/g
- Kidneys tissue activity [6, 7]: 4.08±1.10 %ID/g
- Large Intestine tissue activity [6, 7]: 0.23±0.06 %ID/g
- Liver tissue activity [6, 7]: 4.13±0.50 %ID/g
- Lungs tissue activity [6, 7]: 0.35±0.15 %ID/g
- Muscle tissue activity [6, 7]: 0.18±0.35 %ID/g
- PC3-CXCR4 tumor activity [6, 7]: 1.16±0.12 %ID/g
- PC3-WT tumor activity [6, 7]: 0.86±0.10 %ID/g
- Pancreas tissue activity [6, 7]: 0.22±0.04 %ID/g
- Small Intestine tissue activity [6, 7]: 0.51±0.18 %ID/g
- Spleen tissue activity [6, 7]: 0.12±0.03 %ID/g
- Stomach tissue activity [6, 7]: 0.10±0.03 %ID/g
- PC3-CXCR4 Tumor Uptake ([6]; 1 h p.i., listed as [^18F]RPS-547): 3.1 ± 0.5 %ID/g
- Bone tissue activity ([6]; 2 h p.i.): 0.31±0.02 %ID/g
- Heart tissue activity ([6]; 2 h p.i.): 0.08±0.01 %ID/g
- Kidneys tissue activity ([6]; 2 h p.i.): 5.60±0.56 %ID/g
- Large Intestine tissue activity ([6]; 2 h p.i.): 0.19±0.12 %ID/g
- Liver tissue activity ([6]; 2 h p.i.): 5.18±0.27 %ID/g
- Lungs tissue activity ([6]; 2 h p.i.): 0.24±0.02 %ID/g
- Muscle tissue activity ([6]; 2 h p.i.): 0.09±0.02 %ID/g
- PC3-CXCR4 Tumor-to-Tissue Ratio Blood ([6]; 2 h p.i.): 24.0 ± 0.2
- PC3-CXCR4 Tumor-to-Tissue Ratio Bone ([6]; 2 h p.i.): 6.3 ± 0.4
- PC3-CXCR4 Tumor-to-Tissue Ratio Kidneys ([6]; 2 h p.i.): 0.3 ± 0.1
- PC3-CXCR4 Tumor-to-Tissue Ratio Liver ([6]; 2 h p.i.): 0.4 ± 0.2
- PC3-CXCR4 Tumor-to-Tissue Ratio Lungs ([6]; 2 h p.i.): 8.2 ± 0.4
- PC3-CXCR4 Tumor-to-Tissue Ratio Muscle ([6]; 2 h p.i.): 11.0 ± 0.3
- PC3-CXCR4 Tumor-to-Tissue Ratio PC3-WT ([6]; 2 h p.i.): 2.2 ± 0.2
- PC3-CXCR4 tumor activity ([6]; 2 h p.i.): 2.02±0.10 %ID/g
- PC3-WT tumor activity ([6]; 2 h p.i.): 0.86±0.13 %ID/g
- Pancreas tissue activity ([6]; 2 h p.i.): 0.11±0.00 %ID/g
- Small Intestine tissue activity ([6]; 2 h p.i.): 0.80±0.01 %ID/g
- Spleen tissue activity ([6]; 2 h p.i.): 0.36±0.04 %ID/g
- Stomach tissue activity ([6]; 2 h p.i.): 0.11±0.02 %ID/g
- Kd [1]: 261 ± 22 nM
- Hill Slope, Saturation Binding Experiment [1]: 1.03 ± 0.08
- IC50 [2]: 601 ± 118 nM
- Hill Slope, Competitive Binding Experiment [2]: 0.97 ± 0.14
- Cell-Associated Activity [3]: 6.7 ± 2.8 %IA

Structure (SMILES): FCCn1cc(CCNCc2ccc(CN3CCCNCCNCCCNCC3)cc2)nn1 [RPS-552]
- Blood tissue activity ([5]; 1 h p.i.): 0.21±0.07 %ID/g
- Blood tissue activity [5, 7]: 0.27±0.06 %ID/g
- Bone tissue activity ([6]; 1 h p.i.): 0.64±0.14 %ID/g
- Heart tissue activity ([6]; 1 h p.i.): 0.13±0.03 %ID/g
- Kidneys tissue activity ([6]; 1 h p.i.): 7.23 ± 2.66 %ID/g
- Large Intestine tissue activity ([6]; 1 h p.i.): 0.43±0.10 %ID/g
- Liver tissue activity ([6]; 1 h p.i.): 4.36±0.24 %ID/g
- Lungs tissue activity ([6]; 1 h p.i.): 0.50±0.04 %ID/g
- Muscle tissue activity ([6]; 1 h p.i.): 0.15±0.04 %ID/g
- PC3-CXCR4 Tumor Uptake ([6]; 1 h p.i.): 2.52 ± 0.11 %ID/g
- PC3-CXCR4 Tumor-to-Tissue Ratio Blood ([6]; 1 h p.i.): 11.9 ± 0.1
- PC3-CXCR4 Tumor-to-Tissue Ratio Bone ([6]; 1 h p.i.): 4.0 ± 0.2
- PC3-CXCR4 Tumor-to-Tissue Ratio Kidneys ([6]; 1 h p.i.): 0.3 ± 0.3
- PC3-CXCR4 Tumor-to-Tissue Ratio Liver ([6]; 1 h p.i.): 0.6 ± 0.1
- PC3-CXCR4 Tumor-to-Tissue Ratio Lungs ([6]; 1 h p.i.): 5.0 ± 0.1
- PC3-CXCR4 Tumor-to-Tissue Ratio Muscle ([6]; 1 h p.i.): 16.7 ± 0.1
- PC3-CXCR4 Tumor-to-Tissue Ratio PC3-WT ([6]; 1 h p.i.): 2.5 ± 0.3
- PC3-WT tumor activity ([6]; 1 h p.i.): 1.00±0.23 %ID/g
- Pancreas tissue activity ([6]; 1 h p.i.): 0.26±0.05 %ID/g
- Small Intestine tissue activity ([6]; 1 h p.i.): 0.54±0.06 %ID/g
- Spleen tissue activity ([6]; 1 h p.i.): 0.92±0.08 %ID/g
- Stomach tissue activity ([6]; 1 h p.i.): 0.14±0.07 %ID/g
- Bone tissue activity [6, 7]: 0.31±0.07 %ID/g
- Heart tissue activity [6, 7]: 0.18±0.08 %ID/g
- Kidneys tissue activity [6, 7]: 4.41±1.01 %ID/g
- Large Intestine tissue activity [6, 7]: 0.22±0.03 %ID/g
- Liver tissue activity [6, 7]: 3.15±0.70 %ID/g
- Lungs tissue activity [6, 7]: 0.49±0.09 %ID/g
- Muscle tissue activity [6, 7]: 0.45±0.67 %ID/g
- PC3-CXCR4 tumor activity [6, 7]: 1.20±0.43 %ID/g
- PC3-WT tumor activity [6, 7]: 0.85±0.21 %ID/g
- Pancreas tissue activity [6, 7]: 0.25±0.04 %ID/g
- Small Intestine tissue activity [6, 7]: 0.80±0.11 %ID/g
- Spleen tissue activity [6, 7]: 0.70±0.11 %ID/g
- Stomach tissue activity [6, 7]: 0.20±0.20 %ID/g
- Kd [1]: 314 ± 48 nM
- Hill Slope, Saturation Binding Experiment [1]: 0.93 ± 0.14
- IC50 [2]: 515 ± 68 nM
- Hill Slope, Competitive Binding Experiment [2]: 1.18 ± 0.07
- Cell-Associated Activity [3]: 3.5 ± 0.1 %IA
